Results taken from paper PMC2854136 (Biochemistry, 2009).
Several values for one entry are separate records, joined by “and”; a condition that tells them apart may be missing. Identical values can stand only once. Like-named read-outs stand apart in the source and are kept apart here.

Key:
[1] = molecular target: T1, Escherichia coli glutaminyl-tRNA synthetase (GlnRS) (Escherichia coli, UniProt P00962); assay type: biochemical
Target sequence in this assay (P00962 2-554): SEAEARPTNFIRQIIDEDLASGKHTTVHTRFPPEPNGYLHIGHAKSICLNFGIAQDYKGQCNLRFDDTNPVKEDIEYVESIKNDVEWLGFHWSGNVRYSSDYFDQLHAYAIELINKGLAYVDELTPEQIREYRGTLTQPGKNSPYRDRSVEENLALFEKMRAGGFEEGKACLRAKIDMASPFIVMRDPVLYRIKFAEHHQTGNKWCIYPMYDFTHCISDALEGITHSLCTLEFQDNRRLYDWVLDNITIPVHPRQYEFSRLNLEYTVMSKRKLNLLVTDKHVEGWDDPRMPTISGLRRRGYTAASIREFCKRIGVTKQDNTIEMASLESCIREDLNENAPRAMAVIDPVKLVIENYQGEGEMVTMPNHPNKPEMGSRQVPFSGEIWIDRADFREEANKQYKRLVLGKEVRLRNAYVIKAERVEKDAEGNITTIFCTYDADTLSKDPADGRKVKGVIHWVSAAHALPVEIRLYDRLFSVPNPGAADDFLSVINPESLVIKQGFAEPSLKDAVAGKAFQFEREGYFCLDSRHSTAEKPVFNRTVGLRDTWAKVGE

[2] = molecular target: T1, Escherichia coli glutaminyl-tRNA synthetase (GlnRS); assay type: biochemical; details: 3′-dATP versus ATP
Target sequence in this assay (P00962 2-554): as above

[3] = molecular target: T1, Escherichia coli glutaminyl-tRNA synthetase (GlnRS); assay: Misacylation of tRNA^Gln with glutamate; assay type: biochemical; details: very high glutamate concentrations, single-turnover conditions
Target sequence in this assay (P00962 whole entry): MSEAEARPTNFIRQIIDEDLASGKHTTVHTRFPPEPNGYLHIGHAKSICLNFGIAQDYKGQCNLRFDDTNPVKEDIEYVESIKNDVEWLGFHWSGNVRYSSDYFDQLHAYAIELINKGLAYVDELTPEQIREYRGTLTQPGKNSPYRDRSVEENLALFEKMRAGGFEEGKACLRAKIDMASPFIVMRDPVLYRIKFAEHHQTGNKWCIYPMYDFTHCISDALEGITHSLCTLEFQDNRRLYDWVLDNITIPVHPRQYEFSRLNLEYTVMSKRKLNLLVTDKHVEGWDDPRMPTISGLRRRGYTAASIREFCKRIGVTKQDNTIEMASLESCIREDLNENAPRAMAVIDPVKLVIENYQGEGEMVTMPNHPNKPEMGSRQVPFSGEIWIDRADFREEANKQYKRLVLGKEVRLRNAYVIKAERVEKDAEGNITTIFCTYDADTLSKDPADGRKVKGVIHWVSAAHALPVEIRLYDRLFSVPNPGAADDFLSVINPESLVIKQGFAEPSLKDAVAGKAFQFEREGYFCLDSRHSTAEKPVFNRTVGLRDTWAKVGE

[4] = molecular target: T1, Escherichia coli glutaminyl-tRNA synthetase (GlnRS); details: wild-type GlnRS, cited from earlier work
Target sequence in this assay (P00962 2-554): as the sequence (P00962 2-554) above

**Q.** Which “fold diminution of kcat from wild-type (ATP) reaction” value ([1]; 3′-dATP versus ATP) does the source give for 3′-dATP here?
**A.** Its value is 70 fold and 71 fold.

**Q.** What about the “fold elevation of Km (ATP/3′-dATP) from wild-type (ATP) reaction” value ([1]; 3′-dATP versus ATP) of the same compound?
**A.** Its value is 2 fold.

**Q.** And the “fold elevation of Km (GLN) from wild-type (ATP) reaction” value ([1]; 3′-dATP versus ATP)?
**A.** The value was 16 fold.

**Q.** And the Km ([1]; read-out: Km (ATP/3′-dATP), wild-type GlnRS, Km for 3′-dATP)?
**A.** The Km was 410 ± 30 µM.

**Q.** What about the kcat ([1]; wild-type GlnRS, 3′-dATP in place of ATP, 50 nM enzyme, 12.5 μM tRNA, 37 °C) of the same compound?
**A.** Its kcat is 0.045 ± 0.02 s⁻¹.

**Q.** What about the “fold diminution of kobs from wild-type (ATP) reaction” value [2] of the same compound?
**A.** Its value is 47 fold.

**Q.** And the “misacylation of tRNA^Gln with glutamate using 3′-dATP” value [3]?
**A.** Its value is “unable to detect any reaction”.

**Q.** For `Nc1ncnc2c1ncn2[C@@H]1O[C@H](COP(=O)(O)OP(=O)(O)OP(=O)(O)O)[C@@H](O)[C@H]1O` [ATP], which Km ([4]; read-out: Km (ATP/3′-dATP), Km for ATP) is on record?
**A.** Its Km is 200 ± 20 µM.

**Q.** What about the kcat ([4]; ATP-mediated glutaminylation, 37 °C) of the same compound?
**A.** The kcat was 3.2 ± 0.5 s⁻¹.
